Literature values, collected in US7713351B2, “Method for crystallization of proteins using polysaccharides” (Macrocrystal Oy, priority 2004, dated 2010).

Details: room temperature; CRC Handbook of Chemistry and Physics

Viscosity: 934 mPa s
SMILES: OCC(O)CO [glycerol]
